Assay results as given in patent US5750362A, “Methods for identifying substances with a potential herbicidal or growth-regulating action by means of plant transporter proteins, the use of the transporter proteins, and substances with a herbicidal and growth-regulating action” (BASF Aktiengesellschaft, priority 1993, dated 1998).

How the values were obtained:
[1] = target: T1, ammonium transporter AMT1 (Arabidopsis thaliana, UniProt P54144); experiment: Substrate specificity, Km and Ki determination of the ammonium transporter in yeast strain 26972c; format: cell-based; settings: inhibition of methylamine transport by various concentrations of ammonium; read-out: Ki (inhibitor constant)
T1 construct: expressed in transfected cells; host or cells: Saccharomyces cerevisiae 26972c (mutations in MEP1 and MEP2)
T1 sequence (P54144 1-501): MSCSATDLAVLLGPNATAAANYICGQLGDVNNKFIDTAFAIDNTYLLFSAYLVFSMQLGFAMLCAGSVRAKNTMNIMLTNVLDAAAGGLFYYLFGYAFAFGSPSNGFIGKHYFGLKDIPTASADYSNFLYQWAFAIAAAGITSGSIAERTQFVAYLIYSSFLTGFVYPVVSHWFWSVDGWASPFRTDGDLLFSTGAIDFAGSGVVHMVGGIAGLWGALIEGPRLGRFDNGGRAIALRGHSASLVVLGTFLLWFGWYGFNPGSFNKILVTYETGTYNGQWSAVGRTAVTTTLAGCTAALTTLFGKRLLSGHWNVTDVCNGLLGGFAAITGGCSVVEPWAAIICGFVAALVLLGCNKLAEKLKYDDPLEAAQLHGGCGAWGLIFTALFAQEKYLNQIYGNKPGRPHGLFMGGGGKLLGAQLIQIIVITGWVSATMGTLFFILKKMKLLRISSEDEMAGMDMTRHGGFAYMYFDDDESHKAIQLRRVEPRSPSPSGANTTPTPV
Experimental: The investigations of the substrate specificity and the Km determinations are carried out with the yeast strain .music-natural. 26972c (Dubois & Grenson, Mol. Gen. Genet. 175: 67-76, 1979) which expresses the plant ammonium transporter AMT1. The method for this is as in Example 6, except for the fact that the methylamine substrate concentration is varied. […] To determine the affinity of the transport system for ammonium, the inhibition of methylamine transport by various concentration [sic] of ammonium is determined (inhibitor constant, Ki)

[2] = target: T2, sucrose transporter S21 (SoSUT1) (Spinacia oleracea, UniProt Q03411); experiment: [14C]-sucrose uptake by yeast strain SUSY7 expressing the spinach sucrose transporter; format: cell-based; settings: [14C]-sucrose uptake, pH 3.8; tested substance 0.1 mM
T2 construct: expressed in transfected cells; host or cells: Saccharomyces cerevisiae SUSY7
T2 sequence (Q03411 1-525): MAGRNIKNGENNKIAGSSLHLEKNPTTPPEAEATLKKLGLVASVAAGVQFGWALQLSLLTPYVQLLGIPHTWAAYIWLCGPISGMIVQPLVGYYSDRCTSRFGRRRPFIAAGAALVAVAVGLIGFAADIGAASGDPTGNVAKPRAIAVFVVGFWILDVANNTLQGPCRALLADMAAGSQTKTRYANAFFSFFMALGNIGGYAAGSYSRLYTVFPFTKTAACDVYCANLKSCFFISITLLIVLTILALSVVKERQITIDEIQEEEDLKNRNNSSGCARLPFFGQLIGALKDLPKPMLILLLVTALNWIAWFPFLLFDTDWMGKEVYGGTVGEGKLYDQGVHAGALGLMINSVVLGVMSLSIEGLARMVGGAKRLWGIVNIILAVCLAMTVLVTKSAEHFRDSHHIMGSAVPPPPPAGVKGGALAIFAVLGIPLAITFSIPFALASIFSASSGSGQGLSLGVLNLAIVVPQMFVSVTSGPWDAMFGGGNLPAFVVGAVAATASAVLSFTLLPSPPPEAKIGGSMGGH
Experimental: Yeast cells of the strain SUSY7 (Riesmeier et al., 1992, EMBO J. 11: 4705-4713) are used to identify substances which have an inhibitory effect on sucrose transporters from spinach. Cells of this strain are transformed with a cDNA sequence which codes for the sucrose transporter S21 (SoSUT1) from spinach and which ensures expression of a functional transporter in the cells. The yeast cells are cultured in minimal medium (SD+2% (w/v) sucrose, pH 3.8) at 28° C. and harvested in the logarithmic phase (OD600 =0.6). The cells are spun down at 4000 rpm for 10 minutes and washed twice with SD medium. A cell concentration of c=50 g/l in SD medium is adjusted according to the wet weight of the cells, and 200 μl aliquot fractions are taken. Before the actual reaction, the cells are incubated in 10 mM glucose for 5 min and adjusted to pH 3.8 with MES buffer. The reaction is started by adding 200 μl of a 0.2 mmol/l [14C]-sucrose solution (3 mCi/mmol) in SD medium (pH 3.8). After 20, 60, 120, 180 and 240 seconds, 70 μl portions of the suspension are removed and pipetted into 4 ml of ice-cold water in order to stop the reaction. The cells are filtered off on glass fiber filters and washed twice with ice-cold water. The radioactivity on the filters is subsequently determined in a liquid scintillation counter. The substances to be tested are added 30 seconds before addition of the sucrose. The uptake of radiolabeled sucrose without addition of a potential inhibitor is determined as one control. Cells of the strain SUSY7 which are not transformed with cDNA sequences coding for a sucrose transporter from spinach are employed as further control.
The various tested substances, their concentration and the activity of the transporter, shown as percentage activity of the control in which no potential inhibitors were added, are indicated. Substances which specifically show an inhibitory effect on the sucrose transporter S21 (SoSUT1), are tested for their herbicidal and growth-regulating effect on whole plants.

[3] = target: T3, sucrose transporter P62 (StSUT1) (Solanum tuberosum, UniProt Q43653); experiment: [14C]-sucrose uptake by yeast strain SUSY-7-P62 (StSUT1) expressing the potato sucrose transporter; format: cell-based; settings: [14C]-sucrose uptake, pH 3.8; tested substance 0.1 mM
T3 construct: whole-cell [14C]-sucrose uptake; no tag or borders given
T3 sequence (Q43653 1-516): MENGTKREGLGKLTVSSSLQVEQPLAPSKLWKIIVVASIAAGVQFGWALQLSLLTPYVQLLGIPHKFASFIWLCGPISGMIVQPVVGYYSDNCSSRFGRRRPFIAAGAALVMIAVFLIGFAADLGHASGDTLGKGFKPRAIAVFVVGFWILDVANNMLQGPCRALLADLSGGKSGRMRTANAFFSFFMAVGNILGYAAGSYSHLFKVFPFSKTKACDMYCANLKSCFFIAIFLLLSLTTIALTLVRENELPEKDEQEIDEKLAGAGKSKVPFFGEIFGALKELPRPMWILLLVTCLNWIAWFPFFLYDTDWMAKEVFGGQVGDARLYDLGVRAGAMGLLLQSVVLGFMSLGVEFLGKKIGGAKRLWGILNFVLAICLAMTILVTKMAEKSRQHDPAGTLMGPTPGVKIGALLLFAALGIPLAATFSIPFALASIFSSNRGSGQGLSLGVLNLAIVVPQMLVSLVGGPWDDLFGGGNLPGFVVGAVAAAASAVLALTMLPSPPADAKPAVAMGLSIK
Text: Yeast cells of the strain SUSY7 (Riesmeier et al., 1992, EMBO J. 11: 4705-4713) are used to identify substances which have an inhibitory effect on sucrose transporters from potato. Cells of this strain are transformed with a cDNA sequence which codes for the sucrose transporter P62 (StSUT1) from potato (WO 94/00574, Riesmeier et al., 1993, Plant Cell 5:1591-1598) and which ensures expression of a functional transporter in the cells. The resulting yeast strain was called SUSY-7-P62 (StSUT1). The yeast cells are cultured in minimal medium (SD +2% (w/v) sucrose, pH 3.8) at 28° C. and harvested in the logarithmic phase (OD600 =0.6). The cells are spun down at 4000 rpm for 10 minutes and washed twice with SD medium. A cell concentration of c=50 g/l in SD medium is adjusted according to the wet weight of the cells, and 200 Al aliquot fractions are taken. Before the actual reaction, the cells are incubated in 10 mM glucose for 5 min and adjusted to pH 3.8 with MES buffer. The reaction is started by adding 200 Al of a 0.2 mmol/l [14C]-sucrose solution (3 mCi/mmol) in SD medium (pH 3.8). After 20, 60, 120, 180 and 240 seconds, 70 μl portions of the suspension are removed and pipetted into 4 ml of ice-cold water in order to stop the reaction. The cells are filtered off on glass fiber filters and washed twice with ice-cold water. The radioactivity on the filters is subsequently determined in a liquid scintillation counter. The substances to be tested are added 30 seconds before addition of the sucrose. The uptake of radiolabeled sucrose without addition of a potential inhibitor is determined as one control. Cells of the strain SUSY7 which are not transformed with cDNA sequences coding for a sucrose transporter from potato are employed as further control.
The various tested substances, their concentration and the activity of the transporter, shown as percentage activity of the control in which no potential inhibitors were added, are indicated.

plants = experiment: Herbicidal activity on plants; format: in vivo; settings: whole plants; result in words
sucrose transporters = settings: Bush, 1989, Plant Physiol. 89: 1318-1323; result in words; cited from earlier work
[4] = substrate: OC[C@H]1O[C@@](CO)(O[C@H]2O[C@H](CO)[C@@H](O)[C@H](O)[C@H]2O)[C@@H](O)[C@@H]1O; experiment: Substrate specificity and Km determination of the sucrose transporter in yeast strain SUSY7-pP62; format: cell-based, Solanum tuberosum; settings: other: substrate of the sucrose transporter; substrate concentration varied, no inhibitors
Experimental: (§1) The investigations of the substrate specificity and the Km determination are carried out in the yeast strain SUSY7-pP62 (StSUT1) (Riesmeier et al., 1993, Plant Cell 5:1591-1598), which expresses the sucrose transporter from Solanum tuberosum. This entails carrying out the method of Example 3 apart from the fact that the substrate concentration is changed and no potential inhibitors are added. […]

[5] = substrate: OC[C@H]1O[C@H](O[C@H]2[C@H](O)[C@@H](O)[C@H](O)O[C@@H]2CO)[C@H](O)[C@@H](O)[C@@H]1O; experiment: as above; format: cell-based, Solanum tuberosum; settings: other: substrate of the sucrose transporter; substrate concentration varied, no inhibitors
Experimental: as §1

## N [ammonium]
[1]
  Ki: < 10 µM

## O=S(=O)(O)c1cc[c]([Hg][Cl])cc1 [PCMBS]
[2]
  Activity relative to the control [%]: 21%
[3]
  Activity relative to the control [%]: 20%
plants
  Herbicidal activity on plants: herbicidal activity on plants
Sucrose transporters
  Inhibition of sucrose transport: highly effective transport inhibitors

B1: sucrose transporter P62 (StSUT1) (Solanum tuberosum) (protein)
chain: T3 sequence (Q43653 1-516)
notes: whole-cell [14C]-sucrose uptake; no tag or borders given
[4]
  Km: 1 mM
[5]
  Km: 10 mM
